Results reported in patent publication US20190054054A1, “Methods reducing or preventing oxidation of high density lipoprotein (HDL)” (Amarin Pharmaceuticals Ireland Limited, priority 2017, published 2019).

Columns and labels:
HUVECs exposed to oxLDL = experiment: NO and ONOO^− release from HUVECs exposed to oxLDL, nanosensors (Example 8); type: cell-based, human
Protocol: Human umbilical vein endothelial cells (HUVECs) were isolated into primary cultures from female donors by Clonetics (San Diego, Calif.) and purchased as proliferating cells. All cell culture donors were healthy, with no pregnancy or prenatal complications. […] The confluent cells (4 to 5×10^5 cells/35 mm dish) were placed with minimum essential medium containing 3 mM L-arginine and 0.1 mM BH4 [(6R)-5,6,7,8-tetrahydrobiopterin]. Before experimental use, the cells (from second or third passage) were rinsed twice with Tyrode-HEPES buffer with 1.8 mM CaCl2).
The omega-3 fatty acids (O3FAs) cis-5,8,11,14,17-eicosapentaenoic acid (EPA) and docosahexaenoic acid (DHA) were purchased from Sigma-Aldrich (St. Louis, Mo.) and prepared initially at 11 mM in redistilled ethanol. Primary and secondary O3FA stock solutions were prepared and stored under argon at −20° C.
The oxLDL causes eNOS uncoupling and endothelial dysfunction to reproduce disease-like conditions. 25 Venous blood from healthy normolipidemic volunteers was collected into Na-EDTA (1 mg/mL blood) vacuum tubes after a 12-hour fast. Plasma was immediately separated by centrifugation at 3,000 g for 10 minutes at 4° C.
Tris-NaCl buffer was added to the dialyzed LDL to adjust the protein concentration to 30 mg/mL. A 1-mL aliquot of 20 μM CuSO4 was added to 1 mL of dialyzed normal LDL.
Oxidation was monitored by the use of measurements of TBARS. Briefly, LDL was incubated with thiobarbituric acid (0.5 wt/vol, in H2SO4, 50 mM) for 30 minutes at 100° C. […] TBARS concentration was determined as malondialdehyde (MDA) equivalents with the use of an MDA standard curve.
Concurrent measurements of NO and ONOO^− were performed with tandem electrochemical nanosensors combined into one working unit with a total diameter of 200-400 nm. Their design was based on previously developed and chemically modified carbon-fiber technology. Each of the nanosensors was made by depositing a sensing material on the tip of a carbon fiber (length 4 to 5 μm, diameter 100-200 nm). The fibers were sealed with nonconductive epoxy and electrically connected to copper wires with conductive silver epoxy. Conductive films of polymeric Ni(II) tetrakis (3-methoxy-4-hydroxyphenyl) porphyrin and Mn(III) [2.2] paracyclophanylporphyrin were used for the NO and ONOO^− sensors, respectively.
The amperometric method (with a response time of 0.1 ms) provides a quantitative signal (current) that is directly proportional to changes (from basal levels) in NO or ONOO^− concentration. Amperometric measurements were performed with a Gamry III double-channel potentiostat. Basal NO or ONOO^− levels were measured by differential pulse voltammetry in separate experiments.
All measurements of NO and ONOO^− were performed on intact endothelial cells. The NO/ONOO^− nanosensor module was positioned 5±2 μm from the surface of each individual endothelial cell using a computer-controlled M3301 micromanipulator (x-y-z resolution of 0.2 μm) and microscope (both from World Precision Instruments, Berlin, Germany) fitted with a CD camera.
Endothelial basal media was used for all the treatments. Controls were supplied with an equivalent volume of endothelial basal media.
Data are presented as mean±S.D. for (N) separate samples or experiments. Differences between groups were analyzed using the two-tailed, Student t-test (for comparisons between only two groups) or ANOVA followed by Student-Newman-Keuls multiple comparisons post-hoc analysis (for comparisons between three or more groups). Only differences with probability values less than 0.05 were considered significant.

HUVECs = experiment: NO release from HUVECs incubated with agent-treated oxidized sdLDL (Example 12); type: cell-based, human; details: for reduction of NO release as compared to vehicle-treated, oxidized sdLDL: oxidized sdLDL pretreated with agent at 10.0 μM
Protocol: All samples, with the exception of non-oxidized sdLDL controls, were subjected to copper-induced oxidation for 1 hour. Human umbilical vein endothelial cells (HUVECs) were incubated with the various sdLDL samples, stimulated with calcium, and monitored for nitric oxide (NO) and peroxynitrite (ONOO^−) release using nanosensor technology.

human sdLDL = experiment: Copper-induced sdLDL oxidation, TBARS (Example 7); type: biochemical; details: for effect on sdLDL oxidation as compared to vehicle-treated controls: all at 10 μM, 1 hour (FIG. 16)
Protocol: An experiment to study the antioxidant effect of EPA in LDL and small dense […] performed. […] Fenofibrate, gemfibrozil, and niacin were purchased from Sigma-Aldrich. […] Vitamin E was also incubated with sample aliquots as a positive control.

[1] = oxLDL 20 min, then treatment for 1 hour, EPA 10 μM, ATM 1.0 μM
[2] = treatment 'EPA + oxLDL' (Table 1)

Row | SMILES | NO (HUVECs exposed to oxLDL; [1]) | NO/ONOO^− Ratio (HUVECs exposed to oxLDL; [1]) | ONOO^− (HUVECs exposed to oxLDL; [1]) | reduction of NO release as compared to vehicle-treated, oxidized sdLDL (HUVECs) | effect on sdLDL oxidation as compared to vehicle-treated controls (human sdLDL) | further results
1 | CC/C=C\C/C=C\C/C=C\C/C=C\C/C=C\C/C=C\CCC(=O)O [DHA, docosahexaenoic acid] | 567 ± 103 nM | 3.39 ± 0.72 | 167 ± 18 |  |  | 
2 | CC/C=C\C/C=C\C/C=C\C/C=C\C/C=C\CCCC(=O)O [EPA, cis-5,8,11,14,17-eicosapentaenoic acid] | 423 ± 163 nM | 2.24 ± 0.91 | 189 ± 25 |  |  | increase in NO release as compared to non-oxidized sdLDL treatment (HUVECs; EPA-treated, oxidized sdLDL): 23%; increase in NO release as compared to oxidized LDL treatment (HUVECs; EPA-treated, oxidized sdLDL): 53%; HUVEC NO release (HUVECs; exposure to EPA-treated (10.0 μM), oxidized sdLDL): 931 ± 59 nM; increase in NO release in ECs exposed to oxLDL (HUVECs exposed to oxLDL; as compared to vehicle, EPA 10 μM, ATM 1.0 μM): 45%; NO (HUVECs exposed to oxLDL; [2]): 663 ± 50; NO/ONOO^− Ratio (HUVECs exposed to oxLDL; [2]): 2.68 ± 0.28; ONOO^− (HUVECs exposed to oxLDL; [2]): 247 ± 17; inhibition of sdLDL oxidation as compared to vehicle (human sdLDL; 1.0 μM (each agent), 1 hr): 19±8%; effect on sdLDL oxidation as compared to vehicle or DHA (human sdLDL; 10.0 μM, after 4 hours): significantly inhibited sdLDL oxidation; IC50 (human sdLDL; 1 hr, 10 μM CuSO4, read-out: IC50, inhibition of sdLDL oxidation (calculated)): ~2000 nM; inhibition of sdLDL oxidation as compared to vehicle (human sdLDL; each agent at 10.0 μM, 1 hour (FIG. 17)): 92±8%; inhibition of TBARS formation (human sdLDL; highest treatment concentration (10 μM), 1 hr): 93±2%
3 | Cc1ccc(C)c(OCCCC(C)(C)C(=O)O)c1 [gemfibrozil] | 192 ± 34 nM | 0.72 ± 0.16 | 266 ± 34 | 33% | no significant effect on sdLDL oxidation | 
4 | O=C(O)c1cccnc1 [niacin, nicotinic acid] | 431 ± 100 nM | 2.00 ± 0.52 | 215 ± 25 | 45% | no significant effect on sdLDL oxidation | 
5 | Cc1c(C)c2c(c(C)c1O)CC[C@@](C)(CCC[C@H](C)CCC[C@H](C)CCCC(C)C)O2 [vitamin E, α-tocopherol] |  |  |  |  | no significant effect on sdLDL oxidation | 
